In patent US20050158817A1, “Method for the production of a fermentation product from an organism” (Technische Universiteit Delft, priority 2003, published 2005):

System: Pseudomonas putida KT2442
Description: In accordance with the method of Weusthuis et al. (2001) Biopolymers 3a: Polyesters I: Biological Systems and Biotechnological Production, Wiley-VCH, pp. 291-316, Pseudomonas putida KT2442 was cultured in 8 litres of medium in a 10-litre fed-batch fermentor at 30° C. […] The carbon source in the culture consisted of free fatty acids obtained from coconut oil (Vereenigde Oliefrabrieken, Rotterdam, the Netherlands) in a concentration of 0.4 vol./vol. % per litre of medium, yielding 131 g dry bacteria mass per litre of medium. This carbon source causes the organism to accumulate polyhydroxy alkanoate inclusion bodies. After fermentation, the batter was stored for a maximum of 3 months at 4-8° C.
250 ml of fermentation batter of Pseudomonas putida KT2442 was stirred for 1 hour using a magnetic agitator. […] After adjusting the pH, the mixture was stirred for 30 minutes using a magnetic agitator, whereafter it was homogenised with the aid of a homogeniser (Constant Cell Disruption Systems, Low March, Leerdam, the Netherlands) having a cell volume of 10 ml. The homogeniser was operated at a temperature of 10° C. and the mixture to be homogenised was cooled between homogenisation passages. The number of homogenisation passages was varied from 0 to 5 and the effect of the homogenisation pressure in 1 passage was assessed at 1.0, 1.3, 1.6 or 2.0 kbar. […]

SMILES: N [ammonium hydroxide]
- release of inclusion bodies into the supernatant without homogenisation (pH 11, zero passages (N), cells stored 9 weeks at 4-8° C.): releases a fraction of the inclusion bodies into the supernatant even at zero passages
- fraction of free inclusion bodies released from the cells versus homogenisation pressure (pre-treatment at pH 11, 1 passage at 1.0, 1.3, 1.6 or 2.0 kbar, compared with untreated cells, FIG. 1): more inclusion bodies are released from the cells
